# Where two headings read alike, the source gives them in different places.
# Assays:
# P-gp [1] = target: T1, P-gp (Homo sapiens, UniProt P08183); assay: P-gp substrate assessment using MDR1-MDCK monolayers (Example 1, +/- valspodar); assay type: in vitro ADME; set-up: expressed in transfected cells; host or cells: MDR1-MDCK cells; settings: 12-well plates, QC of MDR1-MDCK cell batch
# Experimental: MDR1-MDCK cell monolayers were grown to confluence on collagen-coated, microporous membranes in 12-well assay plates. Details of the plates and their certification are shown below. The permeability assay buffer was Hanks' balanced salt solution (HBSS) containing 10 mM HEPES and 15 mM glucose at a pH of 7.4. The buffer in the receiver chamber also contained 1% bovine serum albumin. The dosing solution concentration was 5 μM of test article in the assay buffer+/−1 μM valspodar. Cells were first pre-incubated for 30 min with HBSS containing+/−1 μM valspodar. Cell monolayers were dosed on the apical side (A-to-B) or basolateral side (B-to-A) and incubated at 37° C. with 5% CO2 in a humidified incubator. Samples were taken from the donor and receiver chambers at 120 min. Each determination was performed in duplicate. The flux of lucifer yellow was also measured post-experimentally for each monolayer to ensure no damage was inflicted to the cell monolayers during the flux period. All samples were assayed by LC-MS/MS using electrospray ionization. Liquid chromatography conditions are summarized as follows: Column: Thermo BDS Hypersil C18 30×2.1 mm, […], with guard column; M.P. Buffer: 25 mM ammonium formate buffer, pH 3.5; Aqueous Reservoir (A): 90% water, 10% buffer; Organic Reservoir (B): 90% acetonitrile, 10% buffer; Flow Rate: 350 μL/minute; Total run time: 3.5 min; Autosampler: 10 μL injection volume; Autosampler wash: water/methanol/2-propanol: 1/1/1; with 0.2% formic acid.
# The apparent permeability (Papp) and percent recovery were calculated as follows: […]
# where, • dCr/dt is the slope of the cumulative concentration in the receiver compartment versus time in μM s^−1; • Vr is the volume of the receiver compartment in cm^3; • Vd is the volume of the donor compartment in cm^3; • A is the area of the insert (1.13 cm^2 for 12-well); • CA is the average of the nominal dosing concentration and the measured 120 minute donor concentration in μM; • CN is the nominal concentration of the dosing solution in μM; • Cr^final is the cumulative receiver concentration in μM at the end of the incubation period; • Cd^final is the concentration of the donor in μM at the end of the incubation period.
# Efflux ratio (ER) is defined as Papp (B-to-A)/Papp (A-to-B).
# • ER≥2.0 without valspodar, and reduced by ≥50% with valspodar: Positive • ER≥2.0 without valspodar, and reduced by <50% with valspodar: Negative • ER<2.0 without and with valspodar: Negative
# MV4;11-Control cell line = assay: CellTiter-Glo cell viability assay, MV4;11-Control; assay type: cell-based; set-up: unit of the concentration uncertain; settings: second set of experiments
# Experimental: (§1) The influence of efflux pumps on the antitumor activity of the test compounds at steady state (more clinically relevant) were evaluated using P-gp-transfected AML cells (MV4;11 cells) in 6-day viability assays.
# (§2) A P-gp-expressing KMT2A(MLL)-rearranged cell line model was developed by lentiviral transduction of the MV4;11 parental cell line and then selection for either Luciferase ORF (MV4;11-Control) or P-gp ORF (MV4;11-PGP).
# (§3) […] Cell viability was measured by CellTiter-Glo® Luminescent Cell Viability Assay (CTG assay, Promega Corp.) and % Viability was quantified by normalizing to the luminescence values of DMSO-only treated cells. The dose-response curves and IC50's were calculated using GraphPad Prism 9.4.1.
# (§4) The measured luminescence in the live cells of the MV4;11-Control and MV4;11-PGP cells that were treated with Compound I only (+DMSO), Compound I+posaconazole […], and valspodar (1 mM) are shown in FIGS. 5A and 5B.
# (§5) In a second set of experiments, MV4;11-Control and MV4;11-PGP cell lines were treated as described above with five menin inhibitors, including Compound I, SNDX-5613, Compound A, Compound B, and Compound C, at concentrations ranging from 0 to 1000 nM. All tested compounds dropped in potency due to the P-gp expression as shown in FIGS. 6A-6J and in Tables 5 and 6 (indicated by increased IC50 values between “MV4;11-Control (Compound+DMSO)” and “MV4;11-PGP (Compound+DMSO)” entries).
# MV4;11-PGP cell line = assay: CellTiter-Glo cell viability assay, MV4;11-PGP; assay type: cell-based; set-up: unit of the concentration uncertain; settings: second set of experiments
# Experimental: as §1, §2, §3, §4, §5
# P-gp [2] = target: T1, P-gp; assay: in vitro; settings: MDCK-MDR1, pH 7.4
# Experimental: MDCK epithelial cells stably transfected with the human MDR1 gene (the gene encoding for the efflux protein P-gp) were seeded on a Multiscreen™ plate (Millipore, MA, USA) and formed a confluent monolayer over 4 days prior to the experiment. To verify the MDR1-MDCK cell monolayers were properly formed, aliquots of the cell buffers were analyzed by fluorescence to determine the transport of the impermeable dye Lucifer Yellow. Any deviations from control values are reported.
# MDR1-MDCK cells were incubated with these buffers for 2 h, and the receiver side buffer was removed for analysis by LC-MS/MS.
# The rate of passage of the test compounds through this cell monolayer barrier from apical to basolateral (A→B) in this bi-directional transport assay was used to determine the apparent permeability coefficient (Papp). Receiver, donor, and dosing solution concentrations were quantified using a calibration curve prepared in transport buffer solution (pH 7.4). Papp is calculated as
# where dQ/dt is rate of permeation, C0 is initial concentration of test agent, and A is the area of monolayer (0.11 cm^2). The basolateral to apical (B→A) to apical to basolateral (A→B) apparent permeability coefficient ratio
# When RE>2 for a tested compound, the tested compound is a potential substrate for P-gp.
# Rantinidine, talinolol, warfarin, and loperamide (±2 μM elacridar) were tested as reference compounds and each was tested at a concentration of 10 μM.
# OCI-AML3-PGP cell line = assay: Cell viability assay, OCI-AML3-PGP; assay type: cell-based; set-up: unit of the concentration uncertain; settings: 168 h, 7 days
# Experimental: (§6) A third set of experiments was conducted in the cell line OCI-AML3, which carries the W288Cfs*12 mutation in NPM protein. The P-gp expressing OCI-AML3 cell line (OCI-AML3-PGP) and the Luciferase expressing OC-AML3 cell line (OCI-AML3-Control) were established by lentivirally transducing P-gp ORF or Luciferase ORF. Cells were treated with Compound I or SNDX-5613 for 7 days to assess the IC50 values.
# [3] = system: OCI-AML3-Control cell line; assay: Cell viability assay, OCI-AML3-Control; assay type: cell-based; set-up: unit of the concentration uncertain; settings: 168 h, 7 days
# Experimental: as §6
# MOLM13-Control cell line = assay: Cell viability assay, MOLM13-Control; assay type: cell-based; set-up: unit of the concentration uncertain; settings: 168 h, 7 days
# Experimental: (§7) The effects described above were investigated in an AML cell line, MOLM-13, which carries a KA4T2A (MLL)-rearrangement mutation. The P-gp expressing MOLM-13 cell line (MOLM13-PGP) and the Luciferase expressing MOLM-13 cell line (MOLM13-Control) were established by lentivirally transducing P-gp ORF or Luciferase ORF. Cells were plated and treated with test compound for 7 days.
# MOLM13-PGP cell line = assay: Cell viability assay, MOLM13-PGP; assay type: cell-based; set-up: unit of the concentration uncertain; settings: 168 h, 7 days
# Experimental: as §7
# [4] = 144 h, 0 to 1000 nM, Table 5, read-out: IC50 MV4;11-Control (Compound + DMSO)
# [5] = 144 h, 0 to 1000 nM, Table 6, read-out: IC50 MV4;11-Control (Compound + DMSO)
# [6] = posaconazole (1.5 (unit uncertain)), Table 5, read-out: IC50 MV4;11-Control (Compound + posaconazole)
# [7] = valspodar (1 (unit uncertain)), Table 6, read-out: IC50 MV4;11-Control (Compound + valspodar)
# [8] = 144 h, 0 to 1000 nM, Table 5, read-out: IC50 MV4;11-PGP (Compound + DMSO)
# [9] = 144 h, 0 to 1000 nM, Table 6, read-out: IC50 MV4;11-PGP (Compound + DMSO)
# [10] = posaconazole (1.5 (unit uncertain)), Table 5, read-out: IC50 MV4;11-PGP (Compound + posaconazole)
# [11] = valspodar (1 (unit uncertain)), Table 6, read-out: IC50 MV4;11-PGP (Compound + valspodar)
# T1 sequence (P08183 whole entry): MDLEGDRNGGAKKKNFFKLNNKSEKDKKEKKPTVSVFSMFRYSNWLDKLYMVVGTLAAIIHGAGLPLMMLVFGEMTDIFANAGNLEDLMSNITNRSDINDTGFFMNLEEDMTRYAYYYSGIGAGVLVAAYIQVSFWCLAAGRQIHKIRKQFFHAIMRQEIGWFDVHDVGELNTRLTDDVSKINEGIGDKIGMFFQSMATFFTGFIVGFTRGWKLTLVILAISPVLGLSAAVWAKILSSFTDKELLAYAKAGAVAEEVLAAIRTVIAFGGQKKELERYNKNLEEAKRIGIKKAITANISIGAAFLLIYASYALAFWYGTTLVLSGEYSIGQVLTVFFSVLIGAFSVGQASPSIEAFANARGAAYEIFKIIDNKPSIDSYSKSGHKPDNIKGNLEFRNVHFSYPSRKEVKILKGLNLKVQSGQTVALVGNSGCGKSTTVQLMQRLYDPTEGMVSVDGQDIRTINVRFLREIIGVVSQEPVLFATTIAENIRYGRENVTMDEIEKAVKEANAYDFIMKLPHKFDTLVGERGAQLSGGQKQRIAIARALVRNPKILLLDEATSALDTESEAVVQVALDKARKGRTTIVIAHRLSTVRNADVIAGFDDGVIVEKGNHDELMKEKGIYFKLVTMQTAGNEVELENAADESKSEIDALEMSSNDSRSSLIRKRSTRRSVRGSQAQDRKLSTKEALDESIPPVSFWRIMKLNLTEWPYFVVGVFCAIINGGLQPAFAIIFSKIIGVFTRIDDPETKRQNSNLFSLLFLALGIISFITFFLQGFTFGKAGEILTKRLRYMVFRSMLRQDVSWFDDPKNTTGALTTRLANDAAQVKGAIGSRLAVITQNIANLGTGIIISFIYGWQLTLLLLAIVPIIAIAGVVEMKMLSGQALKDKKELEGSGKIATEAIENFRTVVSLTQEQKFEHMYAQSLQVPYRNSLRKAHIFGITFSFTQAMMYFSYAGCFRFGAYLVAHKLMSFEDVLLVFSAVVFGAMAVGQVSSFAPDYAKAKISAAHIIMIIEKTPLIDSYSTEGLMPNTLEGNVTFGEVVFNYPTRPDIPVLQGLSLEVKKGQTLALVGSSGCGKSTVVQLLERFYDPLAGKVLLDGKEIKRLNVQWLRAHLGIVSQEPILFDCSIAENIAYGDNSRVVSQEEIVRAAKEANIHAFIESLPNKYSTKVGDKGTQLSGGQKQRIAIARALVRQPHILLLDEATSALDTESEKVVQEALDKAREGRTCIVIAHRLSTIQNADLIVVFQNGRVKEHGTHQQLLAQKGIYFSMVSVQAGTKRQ
IC50 (MV4;11-Control cell line; [4]),IC50 (MV4;11-Control cell line; [5]),IC50 (MV4;11-Control cell line; [6]),IC50 (MV4;11-Control cell line; [7]),IC50 (MV4;11-PGP cell line; [8]),IC50 (MV4;11-PGP cell line; [9]),Papp A→B at 2 h (P-gp [2]),Papp B→A at 2 h (P-gp [2]),Compound,IC50 (MV4;11-PGP cell line; [10]),IC50 (MV4;11-PGP cell line; [11]),also measured
,,,,,,,,CC(C)NCC(O)COc1cccc2ccccc12 (centres unmarked) [Propanolol],,,"Papp (P-gp [1]; dog, read-out: Papp (cell batch quality control)): 15 ×10⁻⁶ cm/s"
2.28 nM,2.07 nM,2.01 nM,2.1 nM,22 nM,21.3 nM,,,COc1cc(-c2ccc(CN[C@H]3C[C@@H](O)[C@@H](N(C)c4ncnc5sc(CC(F)(F)F)cc45)C3)cc2)nnc1OC [Compound A],4.91 nM,2.41 nM,
,,,,,,21.5 ×10⁻⁶ cm/s,32.3 ×10⁻⁶ cm/s,CC(=O)CC(c1ccccc1)c1c(O)c2ccccc2oc1=O (centres unmarked) [Warfarin],,,
3.32 nM,4.1 nM,2.51 nM,3 nM,108 nM,114 nM,,,CCN(C(=O)c1cc(F)ccc1Oc1nncnc1N1CCC2(C1)CN([C@H](CCCN(C)CCOC)C(C)C)C2)C(C)C [Compound B],5.91 nM,3.15 nM,
,,,,,,,,C[C@H]1O[C@@H](O[C@H]2[C@@H](O)C[C@H](O[C@H]3[C@@H](O)C[C@H](O[C@H]4CC[C@@]5(C)[C@H](CC[C@@H]6[C@@H]5C[C@@H](O)[C@]5(C)[C@@H](C7=CC(=O)OC7)CC[C@]65O)C4)O[C@@H]3C)O[C@@H]2C)C[C@H](O)[C@@H]1O [Digoxin],,,"B-to-A Papp (cell batch quality control) (P-gp [1]): 17.6 10^−6 cm/s; efflux ratio (cell batch quality control) (P-gp [1]): 243; Papp A→B (P-gp [1]; dog, read-out: A-to-B Papp (cell batch quality control)): 0.07 ×10⁻⁶ cm/s"
236 nM,267 nM,222 nM,230 nM,716 nM,764 nM,,,C=CC(=O)N[C@@H]1CCCN(Cc2ccnc(C(=O)Nc3ccc(-c4cc5c(N6CCOCC6)ncnc5[nH]4)cc3)c2)C1 [Compound C],349 nM,231 nM,
,,,,,,0.0514 ×10⁻⁶ cm/s,4.35 ×10⁻⁶ cm/s,CNC(=C[N+](=O)[O-])NCCSCc1ccc(CN(C)C)o1 [Ranitidine],,,

Compound,IC50 (MV4;11-Control cell line; [4]),IC50 (MV4;11-Control cell line; [5]),IC50 (MV4;11-Control cell line; [6]),IC50 (MV4;11-Control cell line; [7]),IC50 (MV4;11-PGP cell line; [8]),IC50 (MV4;11-PGP cell line; [9]),Papp A→B at 2 h (P-gp [2]),Papp B→A at 2 h (P-gp [2]),IC50 (MV4;11-PGP cell line; [10]),IC50 (MV4;11-PGP cell line; [11]),also measured
CCN(C(=O)c1cc(F)ccc1Oc1cncnc1N1CC2(CCN(C[C@H]3CC[C@H](NS(=O)(=O)CC)CC3)CC2)C1)C(C)C [SNDX-5613],8.55 nM,8.58 nM,7.33 nM,7.61 nM,183 nM,173 nM,,,17.1 nM,8.15 nM,"IC50 (OCI-AML3-PGP cell line; Table 9, read-out: IC50 OCI-AML3-PGP (Compound + DMSO)): > 300 nM; IC50 (OCI-AML3-PGP cell line; posaconazole (0.75 (unit uncertain)), Table 9, read-out: IC50 OCI-AML3-PGP (Compound + posaconazole)): 47.7 nM; IC50 (OCI-AML3-PGP cell line; valspodar (1 (unit uncertain)), Table 10, read-out: IC50 OCI-AML3-PGP (Compound + valspodar)): 31.7 nM; IC50 ([3]; Table 9, read-out: IC50 OCI-AML3-Control (Compound + DMSO)): 25.7 nM; IC50 ([3]; Table 10, read-out: IC50 OCI-AML3-Control (Compound + DMSO)): 26.4 nM; IC50 ([3]; posaconazole (0.75 (unit uncertain)), Table 9, read-out: IC50 OCI-AML3-Control (Compound + posaconazole)): 38.8 nM; IC50 ([3]; valspodar (1 (unit uncertain)), Table 10, read-out: IC50 OCI-AML3-Control (Compound + valspodar)): 41.5 nM; IC50 (MOLM13-Control cell line; Table 7, read-out: IC50 MOLM13-Control (Compound + DMSO)): 30.1 nM; IC50 (MOLM13-Control cell line; Table 8, read-out: IC50 MOLM13-Control (compound + DMSO)): 28 nM; IC50 (MOLM13-Control cell line; posaconazole (1.5 (unit uncertain)), Table 7, read-out: IC50 MOLM13-Control (Compound + posaconazole)): 24.8 nM; IC50 (MOLM13-Control cell line; valspodar (1 (unit uncertain)), Table 8, read-out: IC50 MOLM13-Control (Compound + valspodar)): 29.5 nM; IC50 (MOLM13-PGP cell line; Table 7, read-out: IC50 MOLM13-PGP (Compound + DMSO)): > 900 nM; IC50 (MOLM13-PGP cell line; posaconazole (1.5 (unit uncertain)), Table 7, read-out: IC50 MOLM13-PGP (Compound + posaconazole)): 38.6 nM; IC50 (MOLM13-PGP cell line; valspodar (1 (unit uncertain)), Table 8, read-out: IC50 MOLM13-PGP (Compound + valspodar)): 37.1 nM"
CN(C)C(=O)C(CCN1CCC(O)(c2ccc(Cl)cc2)CC1)(c1ccccc1)c1ccccc1 [Loperamide],,,,,,,0.792 ×10⁻⁶ cm/s,61.2 ×10⁻⁶ cm/s,,,

# Reference: patent US20250152591A1, “TREATMENT OF HEMATOLOGICAL MALIGNANCIES WITH MENIN INHIBITORS AND P-GLYCOPROTEIN INHIBITORS” (Kura Oncology, Inc., priority 2022, published 2025)
